Source: patent publication US9199977B2, “Crystal having crystal habits and pharmaceutical composition obtained by processing the crystal” (POLA PHARMA INC., priority 2012, dated 2015)

Legend:
[1] = Elution or dissolution test of luliconazole crystals in anhydrous ethanol; format: physicochemical; conditions: 1 g luliconazole in 500 mL anhydrous ethanol, constant stirring, room temperature
Experimental: (§1) Ethanol containing 10% water was added to luliconazole, followed by being heated, stirred, and filtrated while applying the heat. A filtrate was quickly cooled with an ice bath and the wall surface was scraped with a spatula to perform the recrystallization. Crystals were collected by filtration, followed by being dried by using phosphorus pentaoxide to obtain Crystal 1 of the present invention. In distinct Comparative Example, the same process or treatment was performed while replacing the solvent with a mixture of ethyl acetate/n-hexane (5:1) to obtain Crystal of Comparative Example. The elution or dissolution test was performed for the two types of the crystals to investigate the elution or dissolution profile. After confirming the dissolution of all crystals, the Z isomer and the SE isomer, which were the isomers generated or formed in the solution, were analyzed and quantitatively measured by HPLC assay.
(§2) In the elution or dissolution test, 500 mL of anhydrous ethanol was used as the solvent, and 1 g of luliconazole was dissolved under constant stirring at room temperature. The time, which was required for the dissolution, was simultaneously measured. According to Table 1, it is appreciated that the time required for the dissolution is short for Crystal 1, and thus the generation of the Z isomer and the SE isomer as the isomers is suppressed in the dissolving step.

[2] = HPLC quantification of Z and SE isomers generated in the solution after dissolution; format: physicochemical; conditions: in ethanol solution after dissolution of all crystals
Experimental: as §1, §2
The condition for HPLC was as follows. Column: CHIRALCEL OD-RH 4.6×150 mm, column temperature: 35° C., mobile phase: mixture of methanol/2% aqueous solution of potassium hexafluorophosphate (85:15, v/v), flow rate: 0.6 mL/min., detection: 295 nm).

Row | Time required until dissolution [1] | Amount of generation of SE isomer [2] | Amount of generation of Z isomer [2] | SMILES
1 | 200 min | 0.06% | 0.06% | N#C/C(=C1/SC[C@@H](c2ccc(Cl)cc2Cl)S1)n1ccnc1 [Crystal 1, luliconazole]
2 | 300 min | 0.09% | 0.13% | N#C/C(=C1/SC[C@@H](c2ccc(Cl)cc2Cl)S1)n1ccnc1 [Crystal of Comp. Ex., luliconazole]
